{"source": "patent US8821568B2", "about": "“Implant modified with non-hydroxylated vitamin D precursors” (Numat Biomedical S.L., priority 2008, dated 2014)", "assay_type_in_all_cases": "cell-based, mouse", "key": {"MC3T3-E1 cells [1]": {"tested_on": "MC3T3-E1 cells", "assay": "Cell number (DNA content) and cell covered surface on coated titanium implants", "details": "Ti implants, 48 h", "protocol": "Cells growing on the different surfaces were lysed after 48 hours of cell culture by a freeze-thaw method in deionized distilled water. Cell lysates were used for determination of DNA quantity using Hoechst 33258 fluorescence assay. Samples were mixed with 20 μg/ml of Hoechst 33258 fluorescence stain (Sigma, St. Quentin Fallavier, France) in THE buffer at pH 7.4 containing 10 mM Tris-HCl, 1 mM EDTA and 2 M NaCl. The intensity of fluorescence was measured at excitation and emission wavelengths of 356/465 nm using a multifunction microplate reader (Cary Eclipse fluorescence spectrophotometer, Agilent Technologies, Santa Clara, United States). Relative fluorescence units were correlated with the cell number using a linear standard curve.\nConfocal images were obtained of cells growing in the different treated surfaces at 48 hours of cell culture. […] Various images of each implant were taken with the confocal microscope (Leica DMI 4000B equipped with Leica TCS SPE laser system) by measuring fluorescence signal between 430-480 nm for DAPI and 500-525 nm for Phalloiding-FITC. […]\nQuantitation of the percentage of titanium surface covered with MC3T3-E1cells was achieved by analyzing the previous images with ImageJ software (Rasband, W. S., ImageJ, U. S. National Institutes of Health, Bethesda, Md., USA)."}, "MC3T3-E1 cells [2]": {"tested_on": "MC3T3-E1 cells", "assay": "ALP activity in cell monolayer on coated titanium implants", "details": "Ti implants, day 21", "protocol": "(§1) To test the effect of the surface modification, 96-well plates were used. Ti disks were placed into the wells and treatments and UV-activation were performed over there. Cells grown onto untreated polystyrene tissue culture plastic (TCP) were added as a control for all the experiments. Cells were seeded at a density of 30,000 cells/cm^2 and they were maintained in α-MEM supplemented with 10% FCS and antibiotics. Culture media was collected after 48 hours, to test cytotoxicity and the production of the hydroxylated form of vitamin D, 25-D3. Cells were harvested after two days of culture using Trizol reagent (Roche Diagnostics, Mannheim, Germany), to analyze gene expression of several osteoblast differentiation markers and enzymes involved in vitamin D synthesis using real-time RT-PCR. On the other hand, MC3T3-E1 cells were harvested after 21 days to measure calcium content and ALP activity in the cell monolayer.\nCell monolayer was collected at 21 cell differentiation days and PBS 0.1% Triton X-100 was added to solubilize proteins. Cell lysates were put into freeze/thaw cycles (liquid nitrogen and 37° C. water bath) to improve protein recovery. After centrifugation at 33,000 g for 15 min at 4° C., supernatants acquired were assayed for ALP activity, calcium content and total protein determination. ALP activity was calculated by measuring the cleavage of p-Nitrophenyl Phosphate (pNPP) (Sigma, St. Louis, Mo., USA) in a soluble yellow end product which absorbs at 405 nm. A volume of 100 μl of this substrate was used in combination with 25 μl of each sample supernatant or standard point. The standard curve was prepared from calf intestinal alkaline phosphatase (CIAP, 1 U/μl) (Promega, Madison, Wis., USA) by mixing 1 μl from the stock CIAP with 5 ml of alkaline phosphatase buffer (1:5000 dilution), and then making 1:5 serial dilutions. Once the reaction was carried out, after 30 min in dark at room temperature, it was stopped with the addition of 50 μl of 3 M sodium hydroxide. At this point, absorbance was read at 405 nm.\nTotal protein was determined using a BCA protein assay kit (Pierce, Rockford, Ill., USA). For the analysis, cell supernatants were diluted 1:1 in PBS 0.1% Triton X-100. Standard curve and samples were analyzed as described by the manufacturer and reading the absorbance at 562 nm."}, "MC3T3-E1 cells [3]": {"tested_on": "MC3T3-E1 cells", "assay": "Calcium content (mineralization, ICP-AES) on coated titanium implants", "details": "Ti implants; 28 days; UV-treated compared to UV-untreated cells and control group", "protocol": "as §1, with “On the other hand, MC3T3-E1 cells were harvested after 21 days to measure calcium content and ALP activity in the cell monolayer.” left out\n[…] Cell lysates were put into freeze/thaw cycles (liquid nitrogen and 37° C. water bath) to improve protein recovery. […] ALP activity was calculated by measuring the cleavage of p-Nitrophenyl Phosphate (pNPP) (Sigma, St. Louis, Mo., USA) in a soluble yellow end product which absorbs at 405 nm. […] At this point, absorbance was read at 405 nm.\nTo determine calcium content samples were analyzed by inductively coupled plasma atomic emission spectrometry (Optima 5300 DV, PerkinElmer, Massachussetts, USA). […]"}}}
{"smiles": "CC(C)CCC[C@@H](C)[C@H]1CC[C@H]2C3=CC=C4C[C@@H](O)CC[C@]4(C)[C@H]3CC[C@]12C", "note": "[7-DHC, 7-dehydrocholesterol]", "values": [{"measurement": "Cell number (DNA content)", "setting": "MC3T3-E1 cells [1]; 30 minutes of UV irradiation vs UV-untreated", "value": "significantly higher amount of cells"}, {"measurement": "Percentage of implant surface covered with cells", "setting": "MC3T3-E1 cells [1]; 30 minutes of UV irradiation vs without irradiation", "value": "significant greatest percentage"}, {"measurement": "ALP activity", "setting": "MC3T3-E1 cells [2]; UV-treated vs UV-untreated group", "value": "significant higher ALP activity"}, {"measurement": "ALP activity", "setting": "MC3T3-E1 cells [2]; UV-untreated, percentage of ethanol UV-untreated group set to 100%, mean±SEM", "value": "44.75±3.50", "unit": "%"}, {"measurement": "Calcium content", "setting": "MC3T3-E1 cells [3]", "value": "significant increase"}]}
